Experimental data taken from patent US10308639B2, “Phosphatidylinositol 3-kinase inhibitors” (Gilead Sciences, Inc., priority 2014, dated 2019).

What was measured:
Type in all cases: biochemical
[1] = molecular target: T1, PI3Kγ (Homo sapiens, UniProt P48736); experiment: TR-FRET enzymatic activity assay, PI3Kγ; conditions: Table 2a; same assay; read-out: PI3Kγ IC50
T1 construct: made in house
In short: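 Compounds were profiled per isoform in a biochemical kinase reaction, with activity detected by time-resolved fluorescence resonance energy transfer.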

[2] = molecular target: T2, PI3Kδ (Homo sapiens, UniProt O00329); experiment: TR-FRET enzymatic activity assay, PI3Kδ; conditions: Table 2a; same assay
T2 construct: made in house
T2 sequence (O00329 whole entry): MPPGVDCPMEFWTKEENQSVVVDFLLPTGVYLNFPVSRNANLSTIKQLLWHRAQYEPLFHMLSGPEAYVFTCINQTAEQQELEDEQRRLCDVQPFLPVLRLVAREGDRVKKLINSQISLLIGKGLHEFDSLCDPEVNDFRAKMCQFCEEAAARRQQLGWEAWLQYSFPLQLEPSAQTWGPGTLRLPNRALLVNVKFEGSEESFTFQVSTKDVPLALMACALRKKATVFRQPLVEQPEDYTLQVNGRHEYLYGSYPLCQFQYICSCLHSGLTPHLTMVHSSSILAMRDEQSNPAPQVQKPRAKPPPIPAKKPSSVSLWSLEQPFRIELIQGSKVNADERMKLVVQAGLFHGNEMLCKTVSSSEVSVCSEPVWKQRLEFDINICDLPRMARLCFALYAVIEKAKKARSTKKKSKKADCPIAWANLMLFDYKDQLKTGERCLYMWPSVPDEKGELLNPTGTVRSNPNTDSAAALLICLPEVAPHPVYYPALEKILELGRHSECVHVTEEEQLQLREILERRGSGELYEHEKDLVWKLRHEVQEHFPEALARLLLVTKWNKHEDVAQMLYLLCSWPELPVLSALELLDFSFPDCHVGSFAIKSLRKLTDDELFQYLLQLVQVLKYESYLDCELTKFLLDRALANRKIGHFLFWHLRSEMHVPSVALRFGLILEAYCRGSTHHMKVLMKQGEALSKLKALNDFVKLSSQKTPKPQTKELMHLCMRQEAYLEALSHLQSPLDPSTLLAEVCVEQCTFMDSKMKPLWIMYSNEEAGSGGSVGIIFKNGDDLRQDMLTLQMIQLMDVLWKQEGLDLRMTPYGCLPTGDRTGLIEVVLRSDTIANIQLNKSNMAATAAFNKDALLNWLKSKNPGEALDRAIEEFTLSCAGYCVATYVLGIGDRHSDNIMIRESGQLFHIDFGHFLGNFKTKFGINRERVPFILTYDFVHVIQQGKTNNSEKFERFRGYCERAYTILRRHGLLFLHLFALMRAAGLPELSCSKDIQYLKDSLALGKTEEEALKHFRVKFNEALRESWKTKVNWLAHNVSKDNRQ
T2 sequence (P27986 whole entry partner): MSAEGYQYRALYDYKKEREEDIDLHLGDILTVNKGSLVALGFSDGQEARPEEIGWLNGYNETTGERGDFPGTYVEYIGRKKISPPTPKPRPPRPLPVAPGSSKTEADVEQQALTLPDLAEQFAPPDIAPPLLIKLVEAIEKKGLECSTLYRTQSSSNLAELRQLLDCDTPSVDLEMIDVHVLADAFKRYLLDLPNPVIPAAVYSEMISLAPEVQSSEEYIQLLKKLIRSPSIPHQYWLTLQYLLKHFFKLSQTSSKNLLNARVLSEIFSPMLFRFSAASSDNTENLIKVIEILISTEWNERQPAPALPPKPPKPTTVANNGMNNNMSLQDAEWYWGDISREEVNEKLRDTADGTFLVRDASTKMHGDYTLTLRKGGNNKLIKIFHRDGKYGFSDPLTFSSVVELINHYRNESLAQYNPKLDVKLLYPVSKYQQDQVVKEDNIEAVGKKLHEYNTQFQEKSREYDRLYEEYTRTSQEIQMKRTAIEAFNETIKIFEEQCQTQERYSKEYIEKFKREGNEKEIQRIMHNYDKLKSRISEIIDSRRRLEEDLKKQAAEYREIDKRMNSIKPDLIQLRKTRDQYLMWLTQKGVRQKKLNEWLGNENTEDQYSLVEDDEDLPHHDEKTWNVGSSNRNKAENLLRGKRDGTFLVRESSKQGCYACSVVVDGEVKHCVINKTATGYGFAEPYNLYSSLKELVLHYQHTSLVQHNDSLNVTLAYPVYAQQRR

[3] = molecular target: T3, PI3Kβ (Homo sapiens, UniProt P42338); experiment: TR-FRET enzymatic activity assay, PI3Kβ; conditions: Table 2a; same assay
T3 construct: made in house
T3 sequence (P42338 whole entry): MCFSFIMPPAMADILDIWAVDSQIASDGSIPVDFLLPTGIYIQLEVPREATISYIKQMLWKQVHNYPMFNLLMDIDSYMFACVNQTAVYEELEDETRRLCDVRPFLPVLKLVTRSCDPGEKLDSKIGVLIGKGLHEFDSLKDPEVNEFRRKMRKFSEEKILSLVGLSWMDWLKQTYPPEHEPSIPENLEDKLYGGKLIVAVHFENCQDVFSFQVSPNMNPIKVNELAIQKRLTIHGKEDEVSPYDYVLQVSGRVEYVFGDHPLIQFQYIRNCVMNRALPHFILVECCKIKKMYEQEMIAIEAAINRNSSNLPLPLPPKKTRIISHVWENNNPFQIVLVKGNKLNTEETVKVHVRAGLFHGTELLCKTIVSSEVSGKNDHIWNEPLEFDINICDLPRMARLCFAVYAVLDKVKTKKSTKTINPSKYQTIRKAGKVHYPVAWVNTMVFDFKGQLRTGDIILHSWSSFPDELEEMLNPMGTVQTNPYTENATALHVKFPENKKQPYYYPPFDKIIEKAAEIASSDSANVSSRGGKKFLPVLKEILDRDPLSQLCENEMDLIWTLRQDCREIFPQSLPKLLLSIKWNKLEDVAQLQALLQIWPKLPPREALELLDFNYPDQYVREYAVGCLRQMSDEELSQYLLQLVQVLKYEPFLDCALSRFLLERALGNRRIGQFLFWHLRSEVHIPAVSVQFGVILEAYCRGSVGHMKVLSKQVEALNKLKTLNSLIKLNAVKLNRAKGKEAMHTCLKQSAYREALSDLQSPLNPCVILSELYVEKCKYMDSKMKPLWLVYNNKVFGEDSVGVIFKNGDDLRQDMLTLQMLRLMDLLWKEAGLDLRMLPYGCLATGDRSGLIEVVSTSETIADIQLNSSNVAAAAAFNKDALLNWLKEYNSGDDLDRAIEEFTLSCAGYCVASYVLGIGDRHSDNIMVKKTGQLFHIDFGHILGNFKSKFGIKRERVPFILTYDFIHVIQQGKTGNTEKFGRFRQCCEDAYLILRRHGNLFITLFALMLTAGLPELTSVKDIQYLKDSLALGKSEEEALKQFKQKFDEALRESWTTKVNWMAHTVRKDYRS
T3 sequence (P27986 whole entry partner): as the sequence (P27986 whole entry partner) above

T1 sequence (P48736 whole entry): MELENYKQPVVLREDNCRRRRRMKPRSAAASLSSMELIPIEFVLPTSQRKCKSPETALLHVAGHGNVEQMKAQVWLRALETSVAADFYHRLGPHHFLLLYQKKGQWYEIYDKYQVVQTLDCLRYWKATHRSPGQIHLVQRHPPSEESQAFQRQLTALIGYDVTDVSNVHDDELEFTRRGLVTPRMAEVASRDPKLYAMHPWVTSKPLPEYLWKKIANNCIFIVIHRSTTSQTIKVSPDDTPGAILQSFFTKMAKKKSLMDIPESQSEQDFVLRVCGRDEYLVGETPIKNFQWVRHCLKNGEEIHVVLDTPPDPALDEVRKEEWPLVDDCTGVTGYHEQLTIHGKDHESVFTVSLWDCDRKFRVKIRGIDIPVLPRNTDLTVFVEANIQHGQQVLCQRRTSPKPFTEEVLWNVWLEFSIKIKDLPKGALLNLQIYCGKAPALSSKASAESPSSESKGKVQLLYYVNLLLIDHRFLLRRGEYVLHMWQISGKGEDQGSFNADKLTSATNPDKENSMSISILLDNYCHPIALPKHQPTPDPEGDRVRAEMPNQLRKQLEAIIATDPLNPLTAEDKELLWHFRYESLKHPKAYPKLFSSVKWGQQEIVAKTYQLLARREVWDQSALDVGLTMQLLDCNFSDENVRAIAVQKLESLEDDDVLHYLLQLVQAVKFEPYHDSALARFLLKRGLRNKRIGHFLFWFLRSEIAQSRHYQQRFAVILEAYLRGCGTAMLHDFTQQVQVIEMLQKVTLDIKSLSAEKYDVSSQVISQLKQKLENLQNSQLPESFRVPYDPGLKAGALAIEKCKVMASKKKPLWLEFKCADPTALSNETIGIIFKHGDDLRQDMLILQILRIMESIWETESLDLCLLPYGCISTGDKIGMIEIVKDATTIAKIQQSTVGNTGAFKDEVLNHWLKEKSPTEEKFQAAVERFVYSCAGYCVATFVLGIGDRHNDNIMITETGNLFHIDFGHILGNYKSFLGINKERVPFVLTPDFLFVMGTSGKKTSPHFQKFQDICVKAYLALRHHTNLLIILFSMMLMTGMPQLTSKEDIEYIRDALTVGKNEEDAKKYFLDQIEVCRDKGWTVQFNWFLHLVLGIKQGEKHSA

Row | IC50 [1] | IC50 [2] | IC50 [3] | SMILES
1 | 680 nM | 8 nM | 16 nM | C[C@H](Nc1nc(N)nc(C(F)F)c1C#N)c1nc2cccc(Cl)c2c(=O)n1-c1cc[nH]n1 [Compound 166, (S)-2-amino-4-((1-(5-chloro-4-oxo-3-(1H-pyrazol-3-yl)-3,4-dihydroquinazolin-2-yl)ethyl)amino)-6-(difluoromethyl)pyrimidine-5-carbonitrile]
2 | > 10000 nM | 13 nM | 19 nM | C[C@@H](Nc1nc(N)nc(N)c1C#N)c1nc2c(Cl)cc(F)cc2c(=O)n1-c1cc[nH]n1 [Compound 175, (R)-2,4-diamino-6-((1-(8-chloro-6-fluoro-4-oxo-3-(1H-pyrazol-3-yl)-3,4-dihydroquinazolin-2-yl)ethyl)amino)pyrimidine-5-carbonitrile]
3 | 2000 nM | 18 nM | 26 nM | C[C@H](Nc1nc(N)nc(C(F)F)c1C#N)c1nc2cccc(C(F)F)c2c(=O)n1-c1cc[nH]n1 [Compound 176, (S)-2-amino-4-(difluoromethyl)-6-((1-(5-(difluoromethyl)-4-oxo-3-(1H-pyrazol-3-yl)-3,4-dihydroquinazolin-2-yl)ethyl)amino)pyrimidine-5-carbonitrile]
4 | 2300 nM | 26 nM | 29 nM | N#Cc1c(N[C@H](c2nc3cccc(C(F)F)c3c(=O)n2-c2cc[nH]n2)C2CC2)nc(N)nc1C(F)F [Compound 177, (S)-2-amino-4-((cyclopropyl(5-(difluoromethyl)-4-oxo-3-(1H-pyrazol-3-yl)-3,4-dihydroquinazolin-2-yl)methyl)amino)-6-(difluoromethyl)pyrimidine-5-carbonitrile]
5 | 2240 nM | 23 nM | 34 nM | C[C@H](Nc1nc(N)nc(C(F)F)c1C#N)c1nc2cccc(C(F)(F)F)c2c(=O)n1-c1cc[nH]n1 [Compound 178, (S)-2-amino-4-(difluoromethyl)-6-((1-(4-oxo-3-(1H-pyrazol-3-yl)-5-(trifluoromethyl)-3,4-dihydroquinazolin-2-yl)ethyl)amino)pyrimidine-5-carbonitrile]
6 | 950 nM | 27 nM | 78 nM | C[C@H](Nc1nc(N)nc(C(F)F)c1C#N)c1nc2cccc(C(F)F)c2c(=O)n1-c1cn[nH]c1 [Compound 179, (S)-2-amino-4-(difluoromethyl)-6-((1-(5-(difluoromethyl)-4-oxo-3-(1H-pyrazol-4-yl)-3,4-dihydroquinazolin-2-yl)ethyl)amino)pyrimidine-5-carbonitrile]
7 | > 10000 nM | 77 nM | 65 nM | C[C@@H](Nc1nc(N)nc(N)c1Cl)c1nc2cccc(C(F)F)c2c(=O)n1-c1cc[nH]n1 [Compound 181, (R)-2-(1-((2,6-diamino-5-chloropyrimidin-4-yl)amino)ethyl)-5-(difluoromethyl)-3-(1H-pyrazol-3-yl)quinazolin-4(3H)-one]
8 | 7300 nM | 8 nM | 18 nM | C[C@@H](Nc1nc(N)nc(N)c1C#N)c1nc2cccc(C(F)F)c2c(=O)n1-c1cc[nH]n1 [Compound 182, (R)-2,4-diamino-6-((1-(5-(difluoromethyl)-4-oxo-3-(1H-pyrazol-3-yl)-3,4-dihydroquinazolin-2-yl)ethyl)amino)pyrimidine-5-carbonitrile]
9 | 1300 nM | 4 nM | 6 nM | C[C@H](Nc1nc(N)nc(C(F)F)c1C#N)c1nc2c(F)ccc(Cl)c2c(=O)n1-c1cc[nH]n1 [Compound 185, (S)-2-amino-4-((1-(5-chloro-8-fluoro-4-oxo-3-(1H-pyrazol-3-yl)-3,4-dihydroquinazolin-2-yl)ethyl)amino)-6-(difluoromethyl)pyrimidine-5-carbonitrile]
10 | 4000 nM | 4 nM | 9 nM | C[C@H](Nc1nc(N)nc(C(F)F)c1C#N)c1nc2c(Cl)cccc2c(=O)n1-c1cc[nH]n1 [Compound 188, (S)-2-amino-4-((1-(8-chloro-4-oxo-3-(1H-pyrazol-3-yl)-3,4-dihydroquinazolin-2-yl)ethyl)amino)-6-(difluoromethyl)pyrimidine-5-carbonitrile]
11 | 9900 nM | 8 nM | 31 nM | C[C@H](Nc1nc(N)nc(C(F)F)c1C#N)c1nc2c(Cl)ccc(Cl)c2c(=O)n1-c1cc[nH]n1 [Compound 190, (S)-2-amino-4-((1-(5,8-dichloro-4-oxo-3-(1H-pyrazol-3-yl)-3,4-dihydroquinazolin-2-yl)ethyl)amino)-6-(difluoromethyl)pyrimidine-5-carbonitrile]

Further lines, the compound ahead of its results:

Row | SMILES | IC50 [1] | IC50 [2] | IC50 [3]
12 | C[C@H](Nc1nc(N)nc(N)c1Cl)c1nc2cccc(Cl)c2c(=O)n1-c1cc(F)[nH]n1 [Compound 155, (S)-5-chloro-2-(1-((2,6-diamino-5-chloropyrimidin-4-yl)amino)ethyl)-3-(5-fluoro-1H-pyrazol-3-yl)quinazolin-4(3H)-one] | 500 nM | 10 nM | 43 nM
13 | C[C@H](Nc1nc(N)nc(N)c1Cl)c1nc2c(Cl)cccc2c(=O)n1-c1cc[nH]n1 [Compound 156, (S)-8-chloro-2-(1-((2,6-diamino-5-chloropyrimidin-4-yl)amino)ethyl)-3-(1H-pyrazol-3-yl)quinazolin-4(3H)-one] | > 10000 nM | 9 nM | 26 nM
14 | C[C@H](Nc1nc(N)nc(N)c1Cl)c1nc2cccc(Cl)c2c(=O)n1-c1cn[nH]c1 [Compound 157, (S)-5-chloro-2-(1-((2,6-diamino-5-chloropyrimidin-4-yl)amino)ethyl)-3-(1H-pyrazol-4-yl)quinazolin-4(3H)-one] | 1200 nM | 2 nM | 15 nM
15 | C[C@H](Nc1nc(N)nc(N)c1Cl)c1nc2c(Cl)ccc(Cl)c2c(=O)n1-c1cn[nH]c1 [Compound 158, (S)-5,8-dichloro-2-(1-((2,6-diamino-5-chloropyrimidin-4-yl)amino)ethyl)-3-(1H-pyrazol-4-yl)quinazolin-4(3H)-one] | 5200 nM | 10 nM | 83 nM
16 | C[C@H](Nc1nc(N)nc(N)c1Cl)c1nc2c(F)ccc(Cl)c2c(=O)n1-c1cn[nH]c1 [Compound 159, (S)-5-chloro-2-(1-((2,6-diamino-5-chloropyrimidin-4-yl)amino)ethyl)-8-fluoro-3-(1H-pyrazol-4-yl)quinazolin-4(3H)-one] | 1600 nM | 3 nM | 22 nM
17 | Nc1nc(N)c(Cl)c(N[C@H](c2nc3c(F)cc(F)cc3c(=O)n2-c2cc[nH]n2)C2CC2)n1 [Compound 162, (S)-2-(cyclopropyl((2,6-diamino-5-chloropyrimidin-4-yl)amino)methyl)-6,8-difluoro-3-(1H-pyrazol-3-yl)quinazolin-4(3H)-one] | 6100 nM | 5 nM | 37 nM
18 | C[C@H](Nc1ncnc(N)c1Cl)c1nc2cccc(Cl)c2c(=O)n1-c1cc[nH]n1 [Compound 164, (S)-2-(1-((6-amino-5-chloropyrimidin-4-yl)amino)ethyl)-5-chloro-3-(1H-pyrazol-3-yl)quinazolin-4(3H)-one] | 4300 nM | 0.6 nM | 3 nM
19 | Nc1ncnc(N[C@H](c2nc3cccc(Cl)c3c(=O)n2-c2cc[nH]n2)C2CC2)c1Cl [Compound 165, (S)-2-(((6-amino-5-chloropyrimidin-4-yl)amino)(cyclopropyl)methyl)-5-chloro-3-(1H-pyrazol-3-yl)quinazolin-4(3H)-one] | 4200 nM | 1 nM | 6 nM
20 | C[C@H](Nc1ncnc2sncc12)c1nc2cccc(Cl)c2c(=O)n1-c1cc[nH]n1 [Compound 167, (S)-5-chloro-2-(1-(isothiazolo[5,4-d]pyrimidin-4-ylamino)ethyl)-3-(1H-pyrazol-3-yl)quinazolin-4(3H)-one] | > 10000 nM | 18 nM | 110 nM
21 | C[C@H](Nc1nc(N)nc(N)c1C#N)c1nc2c(F)cc(F)cc2c(=O)n1-c1cc[nH]n1 [Compound 169, (S)-2,4-diamino-6-((1-(6,8-difluoro-4-oxo-3-(1H-pyrazol-3-yl)-3,4-dihydroquinazolin-2-yl)ethyl)amino)pyrimidine-5-carbonitrile] | 260 nM | 0.6 nM | 1 nM
22 | N#Cc1c(N)nc(N)nc1N[C@H](c1nc2c(F)cc(F)cc2c(=O)n1-c1cc[nH]n1)C1CC1 [Compound 170, (S)-2,4-diamino-6-((cyclopropyl(6,8-difluoro-4-oxo-3-(1H-pyrazol-3-yl)-3,4-dihydroquinazolin-2-yl)methyl)amino)pyrimidine-5-carbonitrile] | 436 nM | 1 nM | 3 nM
23 | C[C@H](Nc1nc(N)nc(C(F)F)c1C#N)c1nc2c(Cl)cc(F)cc2c(=O)n1-c1cn[nH]c1 [Compound 183, (S)-2-amino-4-((1-(8-chloro-6-fluoro-4-oxo-3-(1H-pyrazol-4-yl)-3,4-dihydroquinazolin-2-yl)ethyl)amino)-6-(difluoromethyl)pyrimidine-5-carbonitrile] | 840 nM | 9 nM | 25 nM
24 | N#Cc1c(N[C@H](c2nc3c(Cl)cc(F)cc3c(=O)n2-c2cn[nH]c2)C2CC2)nc(N)nc1C(F)F [Compound 184, (S)-2-amino-4-(((8-chloro-6-fluoro-4-oxo 3-(1H-pyrazol-4-yl)-3,4-dihydroquinazolin-2-yl)(cyclopropyl)methyl)amino)-6-(difluoromethyl)pyrimidine-5-carbonitrile] | 1500 nM | 9 nM | 8 nM
25 | N#Cc1c(C(F)F)nc(N)nc1N1CCC[C@H]1c1nc2cccc(Cl)c2c(=O)n1-c1cc[nH]n1 [Compound 189, (S)-2-amino-4-(2-(5-chloro-4-oxo-3-(1H-pyrazol-3-yl)-3,4-dihydroquinazolin-2-yl)pyrrolidin-1-yl)-6-(difluoromethyl)pyrimidine-5-carbonitrile] | > 10000 nM | 130 nM | 2000 nM
